{"source": "patent US20050059585A1", "about": "“Methionine aminopeptidase-2 inhibitors and methods of use thereof” (Praecis Pharmaceuticals Inc., priority 2000, published 2005)", "assay_in_all_cases": "tumor cell line panel, SRB growth assay", "assay_type_in_all_cases": "cell-based", "key": {"[1]": {"system": "DU-145", "conditions": "Homo sapiens; DU-145, Prostate, 48 hours", "procedure": "(§1) The compound of example 5 was also evaluated against a panel of cancer cell lines (Alley, M.C. et al. […] Cancer Research 48: 589-601; Grever, M. R., et al. (1992) Seminars in Oncology, Vol. 19, No. 6, pp 622-638; Boyd, M. R., and Paull, K. D. (1995) Drug Development Research 34: 91-109). The human tumor cell lines of the cancer screening panel were grown in RPMI 1640 medium containing 5% fetal bovine serum and 2 mM L-glutamine. Cells were inoculated into 96 well microtiter plates in 100 μL at plating densities ranging from 5,000 to 40,000 cells/well depending on the doubling time of individual cell lines. After cell inoculation, the microtiter plates were incubated at 37° C., 5 % CO2, 95 % air and 100 % relative humidity for 24 hours prior to addition of experimental drugs.\n(§2) After the 24 hour incubation period, two plates of each cell line were fixed in situ with TCA, to represent a measurement of the cell population for each cell line at the time of drug addition (Tz). Experimental drugs were solubilized in dimethyl sulfoxide at 400-fold the desired final maximum test concentration and stored frozen prior to use. At the time of drug addition, an aliquot of frozen concentrate was thawed and diluted to twice the desired final maximum test concentration with complete medium containing 50 μg/ml gentamicin. Additional four, 10-fold or ½ log serial dilutions were made to provide a total of five drug concentrations plus control. Aliquots of 100 μl of these different drug dilutions were added to the appropriate microtiter wells already containing 100 μl of medium, resulting in the required final drug concentrations.\n(§3) Following drug addition, the plates were incubated for an additional 48 hours at 37° C., 5 % CO2, 95 % air, and 100 % relative humidity. For adherent cells, the assay was terminated by the addition of cold TCA. Cells were fixed in situ by the gentle addition of 50 μl of cold 50 % (w/v) TCA (final concentration, 10% TCA) and incubated for 60 minutes at 4° C. The supernatant was discarded, and the plates were washed five times with tap water and air dried. Sulforhodamine B (SRB) solution (100 μl) at 0.4 % (w/v) in 1 % acetic acid were added to each well, and plates were incubated for 10 minutes at room temperature. After staining, unbound dye was removed by washing five times with 1 % acetic acid and the plates were air dried. Bound stain was subsequently solubilized with 10 mM trizma base, and the absorbance was read on an automated plate reader at a wavelength of 515 nm. For suspension of the cells, the methodology used was the same except that the assay was terminated by fixing settled cells at the bottom of the wells by gently adding 50 μl of 80 % TCA (final concentration, 16% TCA). Using the seven absorbance measurements [time zero, (Tz), control growth, (C), and test growth in the presence of drug at the five concentration levels (Ti)], the percentage growth was calculated at each of the drug concentrations levels.\n(§4) Percentage growth inhibition was calculated as: [(Ti−Tz)/(C−Tz)]×100 for concentrations for which Ti>/=Tz [(Ti−Tz)/Tz]×100 for concentrations for which Ti<Tz.\n(§5) Growth inhibition of 50% (GI50) was calculated from [(Ti−Tz)/(C−Tz)]×100=50, which is the drug concentration resulting in a 50% reduction in the net protein increase (as measured by SRB staining) in control cells during the drug incubation. The G150 was calculated for each of the cell lines if the level of activity is reached; however, if the effect was not reached or is exceeded, the value for that parameter is expressed as greater or less than the maximum (10^−4 M) or minimum (10^−8 M) concentration tested."}, "[2]": {"system": "NCI-H460", "conditions": "Homo sapiens; NCI-H460, Non-Small Cell Lung, 48 hours", "procedure": "as §1, §2, §3, §4, §5"}, "[3]": {"system": "NCI-H226", "conditions": "Homo sapiens; NCI-H226, Non-Small Cell Lung, 48 hours", "procedure": "as §1, §2, §3, §4, §5"}, "[4]": {"system": "SF-539", "conditions": "Homo sapiens; SF-539, CNS, 48 hours", "procedure": "as §1, §2, §3, §4, §5"}, "[5]": {"system": "CAKI-1", "conditions": "Homo sapiens; CAKI-1, Renal, 48 hours", "procedure": "as §1, §2, §3, §4, §5"}, "[6]": {"system": "HOP-92", "conditions": "Homo sapiens; HOP-92, Non-Small Cell Lung, 48 hours", "procedure": "as §1, §2, §3, §4, §5"}, "[7]": {"system": "MOLT-4", "conditions": "Homo sapiens; MOLT-4, Leukemia, 48 hours", "procedure": "as §1, §2, §3, §4, §5"}, "[8]": {"system": "786-0", "conditions": "Homo sapiens; 786-0, Renal, 48 hours", "procedure": "as §1, §2, §3, §4, §5"}, "[9]": {"system": "SN12C", "conditions": "Homo sapiens, Renal, 48 hours", "procedure": "as §1, §2, §3, §4, §5"}, "[10]": {"system": "HCT-15", "conditions": "Homo sapiens; HCT-15, Colon, 48 hours", "procedure": "as §1, §2, §3, §4, §5"}, "[11]": {"system": "HL-60(TB)", "conditions": "Homo sapiens, Leukemia, 48 hours", "procedure": "as §1, §2, §3, §4, §5"}, "[12]": {"system": "HT29", "conditions": "Homo sapiens, HT-29; HT29, Colon, 48 hours", "procedure": "as §1, §2, §3, §4, §5"}, "[13]": {"system": "NCI-H23", "conditions": "Homo sapiens; NCI-H23, Non-Small Cell Lung, 48 hours", "procedure": "as §1, §2, §3, §4, §5"}, "[14]": {"system": "SK-MEL-2", "conditions": "Homo sapiens; SK-MEL-2, Melanoma, 48 hours", "procedure": "as §1, §2, §3, §4, §5"}, "[15]": {"system": "A498", "conditions": "Homo sapiens; A498, Renal, 48 hours", "procedure": "as §1, §2, §3, §4, §5"}, "[16]": {"system": "COLO 205", "conditions": "Homo sapiens; COLO 205, Colon, 48 hours", "procedure": "as §1, §2, §3, §4, §5"}, "[17]": {"system": "MDA-N", "conditions": "Homo sapiens, Breast, 48 hours", "procedure": "as §1, §2, §3, §4, §5"}, "[18]": {"system": "SW-620", "conditions": "Homo sapiens; SW-620, Colon, 48 hours", "procedure": "as §1, §2, §3, §4, §5"}, "[19]": {"system": "HCT-116", "conditions": "Homo sapiens; HCT-116, Colon, 48 hours", "procedure": "as §1, §2, §3, §4, §5"}, "[20]": {"system": "KM12", "conditions": "Homo sapiens; KM12, Colon, 48 hours", "procedure": "as §1, §2, §3, §4, §5"}, "[21]": {"system": "MCF7", "conditions": "Homo sapiens; MCF7, Breast, 48 hours", "procedure": "as §1, §2, §3, §4, §5"}}}
{"smiles": "CO[C@@H]1[C@H](OC(=O)N[C@@H](C(N)=O)C(C)C)CC[C@]2(CO2)[C@H]1[C@@]1(C)O[C@@H]1CC=C(C)C", "note": "[Example 5, (1-Carbamoyl-2-methyl-propyl)-carbamic acid-(3R, 4S, 5S, 6R )-5-methoxy-4-[(2R, 3R)-2-methyl-3-(3-methyl-but-2-enyl)-oxiranyl]-1-oxa-spiro[2.5]oct-6-yl ester]", "values": [{"measurement": "GI50", "setting": "[1]", "result": "< 0.01", "unit": "µM"}, {"measurement": "GI50", "setting": "[2]", "result": "< 0.01", "unit": "µM"}, {"measurement": "GI50", "setting": "[3]", "result": 0.791, "unit": "µM"}, {"measurement": "GI50", "setting": "[4]", "result": 20.6, "unit": "µM"}, {"measurement": "GI50", "setting": "[5]", "result": "< 0.01", "unit": "µM"}, {"measurement": "GI50", "setting": "[6]", "result": 33.9, "unit": "µM"}, {"measurement": "GI50", "setting": "[7]", "result": 35.6, "unit": "µM"}, {"measurement": "GI50", "setting": "[8]", "result": 16.1, "unit": "µM"}, {"measurement": "GI50", "setting": "[9]", "result": "< 0.01", "unit": "µM"}, {"measurement": "GI50", "setting": "[10]", "result": 7.13, "unit": "µM"}, {"measurement": "GI50", "setting": "[11]", "result": 21.7, "unit": "µM"}, {"measurement": "GI50", "setting": "[12]", "result": 16.1, "unit": "µM"}, {"measurement": "GI50", "setting": "[13]", "result": 6.34, "unit": "µM"}, {"measurement": "GI50", "setting": "[14]", "result": "> 100", "unit": "µM"}, {"measurement": "GI50", "setting": "[15]", "result": "> 100", "unit": "µM"}, {"measurement": "GI50", "setting": "[16]", "result": "< 0.01", "unit": "µM"}, {"measurement": "GI50", "setting": "[17]", "result": 1.58, "unit": "µM"}, {"measurement": "GI50", "setting": "[18]", "result": "> 100", "unit": "µM"}, {"measurement": "GI50", "setting": "[19]", "result": "< 0.01", "unit": "µM"}, {"measurement": "GI50", "setting": "[20]", "result": "< 0.01", "unit": "µM"}, {"measurement": "GI50", "setting": "[21]", "result": 12.4, "unit": "µM"}]}
